According to patent US4225619A, “Substituted fluoracylresorcinols” (Boehringer Ingelheim GmBH, priority 1976, dated 1980):
In brackets after ≈: the same amount, converted by molar mass. Like-named read-outs stand apart in the source and are kept apart here.

How the values were obtained:
Corynebacterium acnes = assay: Serial dilution test for Corynebacterium acnes; assay type: cell-based; settings: Cutibacterium acnes, 37° C. for 48 hours, read-out: MIC, S.D.T., Corynebacterium acnes
Method: (§1) Serial dilution test for Corynebacterium acnes and Pityrosporum ovale Nutrient medium
(§2) For Corynebacterium acnes: thioglycolate-broth for Pityrosporum ovale: Littmann's broth, 5 ml per tube.
(§3) Suspension of microorganisms in 0.9% sodium chloride solution, standardized using a photometer according to Eppendorf by means of a suspension for comparison consisting of barium sulfate, for Corynebacterium acnes in a dilution of 1:100, for Pityrosporum ovale in an undiluted state. 0.1 ml of the suspensions was used per test tube. Dimethyl sulfoxide served as a solvent for the substances.
(§4) The suspension with Corynebacteria acnes was incubated at 37° C. for 48 hours, the suspension of Pityrosporum ovale at 27° C. for 7 days. The reading was effected by macroscopic evaluation of the growth of microorganisms and registration of the minimal inhibitory concentration.

[1] = Acute toxicity in mice (LD50); settings: mouse, in vivo, death within 14 days
Method: The acute toxicity was determined with mice. The LD50, the dose leading to the death of 50% of the animals within 14 days, was calculated.

[2] = system: Staphylococcus aureus SG 511; assay: Agar diffusion test (hole-test); assay type: cell-based; settings: SG511, 18-20 hours at 37° C., read-out: MIC, A.D.T., Staphylococcus aureus SG 511
Method: (§5) The inhibitory effect on bacteria and fungi was examined by the serial dilution test and the agar diffusion test (hole-test). As bacteria were used: Staphylococcus aureus SG 511, Streptococcus Aronson, Streptococcus pyogenes At CC 86 68; as fungi: Candida albicans AT CC 10231, Trichophyton mentagrophytes AT CC 9129 and Aspergillus niger.
1. Meat extract agar: for St. aureus SG 511
(§6) The age of the primary cultures is 24 hours for bacteria and 14 days for fungi. The standardization of the suspension of microorganisms is effected using a photometer according to Eppendorf (test tube .phi.14 mm, filter 546 nm) and a suspension for comparison consisting of barium sulfate, this suspension being created by addition of 3.0 ml of 1% barium chloride solution to 97 ml of 1% sulfuric acid. After the standardization St. aureus SG 511 was diluted 1:1000 and Sc. pyogenes and Aronson 1:100 by means of sodium chloride solution. The fungi were used in an undiluted state.
(§7) 40 mgm of the substance were put into a 10 ml measuring flask and filled up to the mark with the solvent (corresponds to a dilution of 1:250=4000 μg/ml).
(§8) The dilutions to the concentrations under test were effected with distilled water or the respective solvent.
(§9) 19 ml of the nutrient medium were filled into sterile Petri dishes of a diameter of 8 cm and dried. Subsequently the agar plates were charged with 4 ml of seed agar. 100 ml of seed agar contain 1.25 ml of the suspension of microorganisms, an agar plate thus containing 0.05 ml of the suspension of microorganisms. After solidification of the agar, 5 holes of a diameter of 5 mm were punched into the plates and filled with 0.05 ml of the correspondingly concentrated substance solution.
(§10) Control tests merely using the solvent are to be carried out simultaneously.
(§11) Bacteria were incubated at 37° C. for 18-20 hours and fungi at 27° C. for 7 days.
(§12) The diameter of the area of inhibition in mm was measured after having deducted the diameter of the hole.

Streptococcus Aronson [3] = assay: Serial dilution test; assay type: cell-based; settings: Streptococcus, 18-20 hours at 37° C., read-out: MIC, S.D.T., Streptococcus Aronson
Method: as §5
(§13) 2. Glucose broth: for Sc. Aronson and St. pyogenes Recipe see meat extract broth. After sterilization 1 weight percent of glucose is added as a sterile 50% solution.
(§14) The age of the primary cultures is 24 hours for bacteria and 14 days for fungi. The standardization of the suspension of microorganisms is effected using a photometer according to Eppendorf (test tube .phi.14 mm, filter 546 nm) and a suspension for comparison consisting of barium sulfate, this suspension being created by adition of 3.0 ml of 1% barium chloride solution to 97 ml of 1% sulfuric acid. After the standardization the bacteria were further diluted to a concentration of 1:1000 by means of sodium chloride solution, the fungi were used in an undiluted state.
(§15) 40 mgm of the substance were put into a 10 ml measuring flask and filled up to the mark with the solvent (corresponds to a dilution of 1:250=4000 μg/ml). The further dilution series was standardized with distilled water or the respective solvent and the following substance concentrations were prepared: 1000; 250; 62.5 μg/ml.
(§16) The tubes were filled with 4.9 ml of the corresponding liquid nutrient medium. Then 0.1 ml of the substance dilution prepared above was added to each tube, so that the mentioned final concentrations were present. Finally each tube was inoculated with 0.1 ml of the standardized suspension of microorganisms. Control tests merely using the solvent are to be carried out simultaneously.
as §11
(§17) The measurement is carried out macroscopically defining the minimal inhibitory concentration (the lowest still microbiostatically effective concentration).

[4] = system: Streptococcus pyogenes At CC 86 68; assay: Serial dilution test; assay type: cell-based; settings: Streptococcus pyogenes, ATCC8668, 18-20 hours at 37° C., read-out: MIC, S.D.T., Streptococcus pyogenes
Method: as §5, §13, §14, §15, §16, §11, §17

[5] = system: Staphylococcus aureus SG 511; assay: Serial dilution test; assay type: cell-based; settings: Staphylococcus aureus, SG511, 18-20 hours at 37° C., read-out: MIC, S.D.T., Staphylococcus aureus SG 511
Method: as §5
1. Meat extract broth: for St. aureus SG 511
as §14, §15, §16, §11, §17

skin = assay: Compatibility on the skin under occlusion; assay type: in vivo; settings: cream containing 10%; over 24 hours under occlusion
Streptococcus Aronson [6] = assay: Agar diffusion test (hole-test); assay type: cell-based; settings: 18-20 hours at 37° C., read-out: MIC, A.D.T., Streptococcus Aronson
Method: as §5
(§18) 2. Glucose agar: for Sc. Aronson and St. pyogenes Recipe see meat extract agar. After sterilization 1 weight percent of glucose is added as a sterile 50% solution.
as §6, §7, §8, §9, §10, §11, §12

[7] = system: Streptococcus pyogenes At CC 86 68; assay: Agar diffusion test (hole-test); assay type: cell-based; settings: ATCC8668, 18-20 hours at 37° C., read-out: MIC, A.D.T., Streptococcus pyogenes
Method: as §5, §18, §6, §7, §8, §9, §10, §11, §12

HeLa-cell culture = assay: Inhibition of HeLa cell cultures; assay type: cell-based; settings: Homo sapiens, 72 h, 37° C. for 3 days, 5% carbon dioxide; for IC50: read-out: ED50, HeLa cell culture; for minimal effective concentration: read-out: Minimal inhibitory concentration, HeLa cell culture
Method: Measurement of the inhibition of cell cultures
HeLa-cell culture was treated with trypsin and adjusted to a cell number of 150,000 cells/ml of fresh medium. The substance was always dissolved in the same quantity of dimethyl sulfoxide and then further diluted with growth medium. 0.1 ml of the substance-dilutions were added to each well of microtiter plates and then 0.2 ml of cell suspension were added (4 wells per dilution). Several growth controls containing 0.1 ml of growth medium instead of 0.1 ml of substance dilution were put up. After careful mixing, the cultures were incubated at 37° C. for 3 days in a 5% carbon dioxide atmosphere. The reading was effected in comparison with these controls. The results were given as the percentage of the deficiency and degeneration compared to the growth control. […] The statements are referred to μg of substance per ml of total medium.

[8] = system: Pityrosporum ovale CBS 1878; assay: Agar diffusion test for Pityrosporum ovale CBS 1878; assay type: cell-based; settings: Malassezia furfur, CBS1878, 168 h, 7 days at 27° C., read-out: MIC, A.D.T., Pityrosporum ovale
Method: Agar diffusion test for Pityrosporum ovale CBS 1878 Nutrient medium
Littmann's agar, 23 ml per Petri dish, diameter of dish 100 mm.
Suspension of microorganisms in 0.9% sodium chloride solution, standardized using a photometer according to Eppendorf by means of a suspension for comparison consisting of barium sulfate. 0.05 ml per plate were used. The test substances were dissolved in dimethyl sulfoxide. The incubation time was 7 days at 27° C.; the area of inhibition in mm was measured, 0.05 ml of the solution of the substance were used for each punch-hole of a diameter of 6 mm. The results of these tests are recorded in the following tables 1 and 2: […]

Aspergillus niger [9] = assay: Agar diffusion test (hole-test); assay type: cell-based; settings: 168 h, 27° C. for 7 days, read-out: MIC, A.D.T., Aspergillus niger
Method: as §5
(§19) 3. Sabouraud agar: for C. alb., Trich. ment., A. niger
as §6, §7, §8, §9, §10, §11, §12

[10] = system: Candida albicans AT CC 10231; assay: Agar diffusion test (hole-test); assay type: cell-based; settings: ATCC10231, 168 h, 27° C. for 7 days, read-out: MIC, A.D.T., Candida albicans
Method: as §5, §19, §6, §7, §8, §9, §10, §11, §12

[11] = system: Trichophyton mentagrophytes AT CC 9129; assay: Agar diffusion test (hole-test); assay type: cell-based; settings: ATCC9129, 168 h, 27° C. for 7 days, read-out: MIC, A.D.T., Trichophyton mentagrophytes
Method: as §5, §19, §6, §7, §8, §9, §10, §11, §12

Pityrosporum ovale = assay: Serial dilution test for Pityrosporum ovale; assay type: cell-based; settings: Malassezia furfur, 168 h, 27° C. for 7 days, read-out: MIC, S.D.T., Pityrosporum ovale
Method: as §1, §2, §3, §4

Aspergillus niger [12] = assay: Serial dilution test; assay type: cell-based; settings: Aspergillus niger, 168 h, 27° C. for 7 days, read-out: MIC, S.D.T., Aspergillus niger
Method: as §5
(§20) 3. Sabouraud broth: for C. alb., Trich. mnt., A. niger
as §14, §15, §16, §11, §17

[13] = system: Candida albicans AT CC 10231; assay: Serial dilution test; assay type: cell-based; settings: for MIC: Candida albicans, ATCC10231, 168 h, 27° C. for 7 days, read-out: MIC, S.D.T., Candida albicans
Method: as §5, §20, §14, §15, §16, §11, §17

[14] = system: Trichophyton mentagrophytes AT CC 9129; assay: Serial dilution test; assay type: cell-based; settings: ATCC9129, 168 h, 27° C. for 7 days, read-out: MIC, S.D.T., Trichophyton mentagrophytes
Method: as §5, §20, §14, §15, §16, §11, §17

humans = settings: in some cases; cited from earlier work
[15] = ip, read-out: LD50 in the mouse, i.p.
[16] = po, read-out: LD50 in the mouse, p.o.
[17] = sc, read-out: LD50 in the mouse, s.c.

CCCCCCc1cc(C(=O)C(F)(F)F)c(O)cc1O [Compound E, 2,4-Dihydroxy-5-n-hexyl-trifluoroacetophenone]
MIC (Corynebacterium acnes): 0.08 mg/L (≈ 0.276 µM)
LD50 at 336 h [1, 15]: 82 mg/kg
LD50 at 336 h [1, 16]: > 3200 mg/kg
LD50 at 336 h [1, 17]: > 4000 mg/kg
MIC [2]: ≤ 15.6 mg/L
MIC (Streptococcus Aronson [3]): 0.31 mg/L (≈ 1.07 µM)
MIC [4]: 0.31 mg/L (≈ 1.07 µM)
MIC [5]: 1.25 mg/L (≈ 4.31 µM)
compatibility on the skin (skin): tolerated without irritation
MIC (Streptococcus Aronson [6]): ≤ 15.6 mg/L
MIC [7]: ≤ 15.6 mg/L
IC50 (HeLa-cell culture): 5.81 mg/L (≈ 20 µM)
minimal effective concentration (HeLa-cell culture): 0.78 µg/mL

CC(C)c1cc(C(=O)C(F)(F)F)c(O)c(Cc2c(O)c(C(=O)C(F)(F)F)cc(C(C)C)c2O)c1O [Compound Q, Methylene-bis-(2,6-dihydroxy-3-isopropyl-5-trifluoro-acetyl)-benzene]
MIC (Corynebacterium acnes): 0.02 mg/L (≈ 0.0393 µM)
LD50 at 336 h [1, 15]: 400 mg/kg
LD50 at 336 h [1, 16]: > 4000 mg/kg
LD50 at 336 h [1, 17]: > 2 mg/kg
MIC [2]: ≤ 15.6 mg/L
MIC (Streptococcus Aronson [3]): 1.25 mg/L (≈ 2.46 µM)
MIC [4]: 0.001 mg/L (≈ 0.00197 µM)
MIC [5]: 0.08 mg/L (≈ 0.157 µM)
MIC (Streptococcus Aronson [6]): ≤ 15.6 mg/L
MIC [7]: ≤ 15.6 mg/L

O=C(c1cc(Cl)c(O)cc1O)C(F)(F)F [U, 2,4-Dihydroxy-5-chloro-trifluoroacetophenone]
MIC [8]: 1000 mg/L (≈ 4160 µM)
MIC (Aspergillus niger [9]): 250 mg/L (≈ 1040 µM)
MIC [10]: 1000 mg/L (≈ 4160 µM)
MIC [11]: 250 mg/L (≈ 1040 µM)
MIC (Pityrosporum ovale): 10 mg/L (≈ 41.6 µM)
MIC (Aspergillus niger [12]): 20 mg/L (≈ 83.1 µM)
MIC [13]: 20 mg/L (≈ 83.1 µM)
MIC [14]: 5 mg/L (≈ 20.8 µM)

Cc1c(O)ccc(C(=O)C(F)(F)C(F)(F)F)c1O [V, 2,4-Dihydroxy-3-methyl-pentafluoropropiophenone]
MIC [8]: 4000 mg/L (≈ 14800 µM)
MIC (Aspergillus niger [9]): > 4000 mg/L
MIC [10]: 4000 mg/L (≈ 14800 µM)
MIC [11]: 250 mg/L (≈ 925 µM)
MIC (Pityrosporum ovale): 20 mg/L (≈ 74 µM)
IC50 (HeLa-cell culture): 1.5 mg/L (≈ 5.55 µM)
minimal effective concentration (HeLa-cell culture): ≤ 0.78 µg/mL
MIC (Aspergillus niger [12]): > 80 mg/L
MIC [13]: 80 mg/L (≈ 296 µM)
MIC [14]: 20 mg/L (≈ 74 µM)

CCCCCCCCCCc1cc(C(=O)C(F)(F)F)c(O)cc1O [W, 2,4-Dihydroxy-5-n-decyl-trifluoroacetophenone]
MIC [8]: 250 mg/L (≈ 722 µM)
MIC (Aspergillus niger [9]): 250 mg/L (≈ 722 µM)
MIC [10]: 1000 mg/L (≈ 2890 µM)
MIC [11]: ≤ 15.6 mg/L
MIC (Pityrosporum ovale): 80 mg/L (≈ 231 µM)
MIC (Aspergillus niger [12]): 5 mg/L (≈ 14.4 µM)
Concentration with reduced growth (value in brackets), S.D.T., Candida albicans ([13]; reduced growth at this concentration): 20 µg/mL
MIC [14]: 1.25 mg/L (≈ 3.61 µM)

CCCCCCc1ccc(O)cc1O [hexyl-resorcinol]
allergies in humans (humans): in some cases cause allergies in humans
